The values that follow come from patent publication US12295970B2, “Imidazoquinoline compounds and prodrugs thereof” (UNIVERSITY OF KANSAS, priority 2019, dated 2025).

The test system of one data set is canine PBMCs. Description: In vitro cytokine secretion assay in canine PBMCs (Example 3). The format is cell-based. As to conditions: 15 hours, ELISA. From the text: As a TLR7/8 agonist, R848 binds to endosomal TLR7 and 8 receptors located on antigen presenting cells (APCs). The activation of APCs produces pro-inflammatory cytokines including TNF-α, type I IFN and IL-12. These cytokines, together with stimulated APCs that take up tumor antigens, enhance the activation of anti-tumor Th-1 immune responses that involve both CD4^+ T helper cells and CD8^+ cytotoxic T cells.^16 To evaluate the Th-1 associated cytokine production in vitro, isolated canine PBMCs were treated with R848, formulated or unformulated R848-Toco, and the secretion of TNF-α and IL-12 were measured by ELISA as markers of generalized inflammatory response. Canines were chosen as a model over mice because of the greater genetic similarity to humans and more similar immune systems.^46 Peripheral blood from healthy canine donors of 7-10 years age (similar to the age of typical canines with cancer^14) was obtained with appropriate informed consent of the owner. Blood (8 mL per tube) was drawn via sterile venipuncture into a BD Vacutainer cell preparation tube containing sodium heparin (BD Biosciences). PBMCs were isolated within one hour following procurement by density gradient centrifugation according to the manufacturer protocol and resuspended to 3×10^6 cells/mL in sterile RPMI 1640 medium with L-glutamine (Gibco) supplemented with 100 IU/mL penicillin, 100 μg/mL streptomycin (Corning) and 10% (v/v) heat-inactivated Fetalgro (RMBIO). Corning 3917, 96-well tissue culture treated plates were seeded with the PBMC suspension (180 μL/well), 20 μL of the serially diluted R848 samples were added in triplicate and HA-Toco vehicle in duplicate to yield the desired concentrations in a 1% (v/v) DMSO cell suspension. […] Sample cytokine concentrations were determined by interpolation of a four-parameter logistic curve of the recombinant standards using GraphPad Prism 6. […] Cytokine secretion levels were measured by ELISA (Duoset, R&D Systems, Minneapolis, MN, USA) according to the manufacturer protocol.
For orientation: ELISA stands for enzyme-linked immunosorbent assay.

The nature of data set [1]: Depot effect: ear inflammation test in healthy rabbits. Type of data set: in vivo, New Zealand White rabbits. As to conditions: s.c. into rabbit ear. As to the method: It was observed that a local injection of the R848-Toco/HA-Toco nano-emulsion forms a depot at the site of injection and releases the loaded agonist in a sustained fashion, producing prolonged and localized immune stimulation while minimizing systemic off-target effects. To test the localization effect, an ear inflammation test was conducted in healthy rabbits. R848-Toco/HA-Toco and unformulated R848 were injected subcutaneously into opposing rabbit ears of subjects, and local inflammation and systemic TNF-α responses were observed.
New Zealand White rabbits (3-4 kg) were anaesthetized using 5% isoflurane and injected subcutaneously with 2.5 mg of R848 in 250 μl of vehicle into the ipsilateral ear. R848-Toco/HA-Toco was formulated as described above, and the R848 parent compound was formulated in 0.5% polysorbate 80 (w/v) in water. For histopathology, punch biopsies were taken 24 hours post injection, fixed in formalin, and analyzed by a board-certified veterinary pathologist (Kansas State Veterinary Hospital, […], KS, USA). In separate animals, blood samples were taken pre-injection and at 0.5, 1, 2, 5, and 24 h post-injection time points from the contra-lateral ear (marginal vein, 22 ga). Whole blood was centrifuged at 1500×g for 5 min and the serum were collected for cytokine evaluation. All samples and controls were prepared, and serum cytokine levels were measured.

“Also recorded” adds a separate entry of the source.

On to `CCOCc1nc2c(N)nc3ccccc3c2n1CC(C)(C)O` [Compound 2, resiquimod, reference compound], for which, in the data set with canine PBMCs, the IL-12 levels entry was “highest” and the “secretion of TNF-α” value is “strong secretion”. Besides, in data set [1] (2.5 mg of R848 in 250 μl), the “local response at the injection site” value is reported as “minimum change; also recorded: no local reaction”. For the same compound, the “plasma TNF-α levels” value in data set [1] (0.5-24 h post-injection, n=4) is on record as “significant elevation”.
